Laboratory results taken from PMC11324666, “Two novel in vitro assays to screen chemicals for their capacity to inhibit thyroid hormone transmembrane transporter proteins OATP1C1 and OAT4” (Archives of Toxicology, 2024).
Read-outs that look alike come from different tables or passages of the source.

Target: T1, OATP1C1 (Homo sapiens, UniProt Q9NYB5)
T1 construct: host or cells: CHO-K1
T1 sequence (Q9NYB5 1-712): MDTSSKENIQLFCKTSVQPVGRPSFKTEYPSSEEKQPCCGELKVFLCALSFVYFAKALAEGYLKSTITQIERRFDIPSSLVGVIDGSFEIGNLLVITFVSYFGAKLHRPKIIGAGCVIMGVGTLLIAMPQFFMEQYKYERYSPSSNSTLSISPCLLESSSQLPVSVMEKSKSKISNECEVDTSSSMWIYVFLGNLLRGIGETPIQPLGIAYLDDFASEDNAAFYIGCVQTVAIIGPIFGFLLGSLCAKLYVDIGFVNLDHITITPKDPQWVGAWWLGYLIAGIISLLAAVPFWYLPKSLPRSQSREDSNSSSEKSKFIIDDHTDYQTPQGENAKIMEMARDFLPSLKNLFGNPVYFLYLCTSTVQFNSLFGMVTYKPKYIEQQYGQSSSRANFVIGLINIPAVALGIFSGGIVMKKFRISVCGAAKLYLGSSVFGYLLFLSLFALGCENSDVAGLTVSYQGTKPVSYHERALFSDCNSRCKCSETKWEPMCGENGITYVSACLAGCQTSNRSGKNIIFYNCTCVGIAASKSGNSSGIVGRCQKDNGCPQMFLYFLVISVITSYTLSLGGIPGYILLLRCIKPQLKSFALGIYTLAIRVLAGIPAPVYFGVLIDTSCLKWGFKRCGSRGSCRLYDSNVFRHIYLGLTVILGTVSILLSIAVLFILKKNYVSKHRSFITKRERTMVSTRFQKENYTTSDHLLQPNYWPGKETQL
Test: CHO-K1 OATP1C1 TH uptake assay with 125I-T4 tracer
Format: cell-based
Conditions: for 125I-T4 uptake compared to the vehicle control (range finding): single concentration 10 or 100 µM, below 80% = positive hit
Method: MDCK-OAT4 and MDCK-DEST cells were cultured in DMEM:F12 (L-glutamine, 15 mM HEPES) (Gibco) supplemented with (100 µg/mL penicillin + 100 µg/mL streptomycin), 10% fetal calf serum (Gibco) and 2 µg/mL blasticidin (Sigma). CHO-K1 OATP1C1 or WT cells were cultured in F12 nutrient mix (Gibco) supplemented with (100 µg/mL penicillin + 100 µg/mL streptomycin), 10% fetal calf serum (Gibco) and […] G418 (Sigma). All cell cultures were incubated at 37 °C with 5% CO2 saturation until 80% confluency. MDCK-OAT4 and MDCK-DEST cells were seeded in 96 wells plate at a density of 4 × 10^5 cells in 100 µL medium per well and incubated for 24 h before the start of the MDCK-OAT4 TH uptake assay. CHO-K1 OATP1C1 and WT cells were seeded in 96 wells plate at a density of 3 × 10^5 cells in 100 µL medium per well 72 h before the CHO-K1 OATP1C1 TH uptake assay. Medium from CHO-K1 OATP1C1 or WT assay plates was changed to serum-free F12 medium containing 5 mM sodium-butyrate 24 h before start of the CHO-K1 OATP1C1 TH uptake assay to increase transfected expression of SV-40 promotor plasmids.
Subsequently 10 µL of a tenfold stock of test compound in uptake buffer (solvent concentration 1% v/v) was added to each well. […] Cells were exposed at 37 °C for 20 min (MDCK-OAT4) or 30 min (CHO-K1 OATP1C1), unless stated differently. After exposure, cells were immediately washed with ice-cold PBS supplemented with 0.1% bovine serum albumin (BSA). Subsequently, cells were lysed in 50 µL of 0.1 M NaOH under continuous shaking at room temperature. After 20 min, cell lysates were manually transferred into separate 5 mL polypropylene tubes. One tube was also prepared with 10 µL of the T4 tracer solution. Radioactivity was measured in a Wizard^2 gamma counter (Perkin Elmer).
For the CHO-K1 OATP1C1 TH uptake assay total of 29 chemicals (Table 1) were selected for the EDC screening based on available literature data. […] The same chemicals were selected for the MDCK-OAT4 TH uptake assay, with the exception of BPF, VRP and TCS. […] The THTMT TH uptake assay was then performed as described earlier. […] A concentration of 100 µM ICG was used as a reference chemical for OATP1C1 and 100 µM LESI for OAT4. At least three independent experiments were performed for each chemical.
Raw values were normalized to the total amount of radioactivity in the T4 tracer solution. These values were expressed as a percentage of total radioactivity added (or uptake percentage) and used for all further data analysis. Statistically significant differences between the T4 uptake of transfected and wild type cells, in the presence or absence of inhibitor, were determined by two-way ANOVA (α = 5%, two-sided). […] In brief, uptake values were normalized to the median response of the vehicle and positive controls for each plate. […] Statistical analysis were performed using GraphPad Prism version 8 for Windows (GraphPad Software, San Diego, California USA) and SAS 9.3 (SAS Institute, Cary NC).

[1] = concentration that inhibits 125I-T4 uptake by 20%, 10 nM T4, 30 min, brackets = 95% CI

Compound	T4 uptake inhibition BMC20 (M), [CI] [1]	125I-T4 uptake compared to the vehicle control (range finding) (10 nM T4, 30 min)	further results
Oc1ccc(C(c2ccc(O)cc2)(C(F)(F)F)C(F)(F)F)cc1 [Bisphenol AF, Bisphenol-AF]	3.52E−06 [2.03E−06; 6.11E−06] M		
Oc1ccc(Cc2ccc(O)cc2)cc1 [Bisphenol F, Bisphenol-F]	4.49E−05 [2.80E−05; 7.20E−05] M	below 80%	
O=C1OC(c2ccc(O)c(S(=O)(=O)O)c2)(c2ccc(O)c(S(=O)(=O)O)c2)c2c(Br)c(Br)c(Br)c(Br)c21 [Bromosulfophthalein, reference compound]	8.72E−07 [5.70E−07; 1.33E−06] M	below 80%	
CC1(C)C(/C=C/C=C/C=C/C=C2\N(CCCCS(=O)(=O)O)c3ccc4ccccc4c3C2(C)C)=[N+](CCCCS(=O)(=O)[O-])c2ccc3ccccc3c21 [Indocyanine green, reference compound]	3.60E−07 [2.17E−07; 5.97E−07] M		T4 uptake on co-exposure to known inhibitor (100 µM, t = 40 min, versus CHO-K1 wildtype cells): decreased back to control
Oc1c(Cl)c(Cl)c(Cl)c(Cl)c1Cl [Pentachlorophenol]			T4 uptake inhibition BMC20 (M), [CI]: 8.81E−08 [5.80E−08; 1.34E−07] M
O=S(=O)(O)C(F)(F)C(F)(F)C(F)(F)C(F)(F)C(F)(F)C(F)(F)C(F)(F)C(F)(F)F [Perfluorooctanesulfonic acid]	4.03E−07 [2.32E−07; 7.00E−07] M	below 80%	
O=C(O)C(F)(F)C(F)(F)C(F)(F)C(F)(F)C(F)(F)C(F)(F)C(F)(F)F [Perfluorooctanoic acid]	2.94E−06 [1.04E−06; 8.36E−06] M		
CCCN(CCC)S(=O)(=O)c1ccc(C(=O)O)cc1 [Probenecid, reference compound]	6.66E−07 [1.24E−07; 3.57E−06] M		
O=c1c(O)c(-c2ccc(O)c(O)c2)oc2cc(O)cc(O)c12 [Quercetin]	3.94E−08 [4.41E−09; 3.51E−07] M		
CO[C@H]1/C=C/O[C@@]2(C)Oc3c(C)c(O)c4c(O)c(c(/C=N/N5CCN(C)CC5)c(O)c4c3C2=O)NC(=O)/C(C)=C\C=C\[C@H](C)[C@H](O)[C@@H](C)[C@@H](O)[C@@H](C)[C@H](OC(C)=O)[C@@H]1C [Rifampicin, reference compound]	4.06E−05 [2.58E−05; 6.38E−05] M		
COc1cc([C@@H]2Oc3c(O)cc([C@H]4Oc5cc(O)cc(O)c5C(=O)[C@@H]4O)cc3[C@H]2CO)ccc1O [Silychristin, reference compound]	3.78E−06 [1.54E−06; 9.27E−06] M	below 80%	
O=S(=O)([O-])c1cc(S(=O)(=O)O)ccc1C1=c2cc3c4c(c2Oc2c1cc1c5c2CCCN5CCC1)CCC[N+]=4CCC3 [Sulforhodamine 101, reference compound]	2.86E−06 [1.29E−06; 6.34E−06] M	below 80%	
CC(C)(c1cc(Br)c(O)c(Br)c1)c1cc(Br)c(O)c(Br)c1 [Tetrabromobisphenol A, Tetrabromobisphenol-A]	2.03E−09 [1.28E−09; 3.22E−09] M	below 80%	BMC20 (20% reduction in T4 uptake): 0.0020 µM
